Test results: US7205382B2, “Peptides, the production and use thereof for binding immunoglobulins” (Fresenius Medical Care Affina GmbH, priority 2000, dated 2007)
Bridge positions count the residues as written; N and C are the ends. Square brackets hold non-standard residues; d marks the D form. Ends that are not written are not given here. cellulose = not defined here; βAla = NCCC(=O)O

What was measured:
Assay type in all cases: binding
Parameters in all cases: key: No binding of immunoglobulin for the defined peptide variant, detection negative: 0; Binding of immunoglobulin for the defined peptide variant, detection positive: +
[1] = system: serum albumin; experiment: Cellulose-immobilized 13-mer peptide variants incubated with serum albumin (negative control), anti-human IgG-AP detection; conditions: blocking buffer without addition, 3 h room temperature
Procedure: (§1) Peptides consisting of 13 amino acids were synthesized by solid phase synthesis (Houghten, 1985) on a cellulose matrix with (βA)(βA) as a spacer group.
(§2) The immobilized peptides were tested for their immunoglobulin binding capability by incubation with human IgG-Fc in a buffered solution and by incubation with human plasma.
(§3) Thus, the peptide variants immobilized on solid phases were washed with T-TBS buffer (136 mM NaCl, 1.6 mM KCl, 0.05% (v/v) Tween 20, 50 mM Tris-HCl, pH 8.0) and subsequently treated with blocking buffers (5% (w/v) saccharose, 4% (w/v) bovine serum albumin in T-TBS). Incubation of the immobilized peptides with IgG-Fc (1 μg/ml) in blocking buffer and human serum (diluted 1:10,000 in blocking buffer) was effected for 3 h at room temperature. For checking the specificity of the binding, buffered serum albumin solution (blocking buffer) without addition was included as a control. Thereafter, the peptide variants immobilized on the solid phases were washed three more times with T-TBS buffer.
(§4) After incubation with alkaline phosphatase-conjugated anti-human IgG antibody (1.2 μg/ml) in blocking buffer, detection of the immunoglobulin binding was effected by means of NBT (nitroblue tetrazolium chloride)/BCIP (5-bromo-4-chloro-3-indolyl phosphate toluidine salt) as a substrate (200 μl of parent solution (18.75 mg/ml NBT and 9.4 mg/ml BCIP in 67% (v/v) DMSO) in 10 ml developing buffer (100 mM Tris-HCl, 100 mM NaCl, 5 mM MgCl2, pH 9.5)).

[2] = system: immunoglobulins in human plasma; experiment: Cellulose-immobilized 13-mer peptide variants incubated with human plasma, anti-human IgG-AP detection; conditions: human plasma as sample, diluted 1:10,000 in blocking buffer, 3 h room temperature
Procedure: as §1, §2, §3, §4

[3] = system: human IgG-Fc; experiment: Cellulose-immobilized 13-mer peptide variants incubated with human IgG-Fc, anti-human IgG-AP detection; conditions: IgG-Fc 1 μg/ml in blocking buffer, 3 h room temperature
Procedure: as §1, §2, §3, §4

Substance	Result for incubation with serum albumin (immunoglobulin binding detection) [1]	Result for incubation with human plasma (immunoglobulin binding detection) [2]	Result for incubation with human IgG-Fc (immunoglobulin binding detection) [3]
05A: cellulose-bound 13-mer variant DCAWALGELVWCT-(βA)(βA) (disulfide 2-12 (inferred); not fully specified (N-terminus, C-terminus); printed as DCAWALGELVWCT-(βA)(βA); also: cellulose-bound)	0	0	0
01P: cellulose-bound 13-mer variant PCAWHLGELVWCT-(βA)(βA) (PCAWHLGELVWCT-{βAla-βAla-cellulose}; disulfide 2-12 (inferred); reading uncertain; also: printed as PCAWHLGELVWCT-(βA)(βA))	0	0	+
07M: cellulose-bound 13-mer variant DCAWHLMELVWCT-(βA)(βA) (DCAWHLMELVWCT-{βAla-βAla-cellulose}; disulfide 2-12 (inferred); not fully specified (N-terminus); printed as DCAWHLMELVWCT-(βA)(βA); reading uncertain)	0	0	0
01S: cellulose-bound 13-mer variant SCAWHLGELVWCT-(βA)(βA) (SCAWHLGELVWCT-{βAla-βAla-cellulose}; disulfide 2-12 (inferred); reading uncertain; also: printed as SCAWHLGELVWCT-(βA)(βA))	0	0	+
04M: cellulose-bound 13-mer variant DCAMHLGELVWCT-(βA)(βA) (DCAMHLGELVWCT[βAla][βAla]; disulfide 2-12 (inferred); also: cellulose-bound)	0	+	+
07V: cellulose-bound 13-mer variant DCAWHLVELVWCT-(βA)(βA) (DCAWHLVELVWCT-{βAla-βAla-cellulose}; disulfide 2-12 (inferred); not fully specified (N-terminus); printed as DCAWHLVELVWCT-(βA)(βA); reading uncertain)	0	0	0
11F: cellulose-bound 13-mer variant DCAWHLGELVFCT-(βA)(βA) (DCAWHLGELVFCT-{βAla-βAla-cellulose}; disulfide 2-12 (inferred); reading uncertain; also: printed as DCAWHLGELVFCT-(βA)(βA))	0	0	0
08G: cellulose-bound 13-mer variant DCAWHLGGLVWCT-(βA)(βA) (DCAWHLGGLVWCT-{βAla-βAla-cellulose}; disulfide 2-12 (inferred); not fully specified (N-terminus); printed as DCAWHLGGLVWCT-(βA)(βA); reading uncertain)	0	0	0

The remaining lines, values ahead:

Result for incubation with serum albumin (immunoglobulin binding detection) [1]	Result for incubation with human plasma (immunoglobulin binding detection) [2]	Result for incubation with human IgG-Fc (immunoglobulin binding detection) [3]	Substance
0	0	0	10L: cellulose-bound 13-mer variant DCAWHLGELLWCT-(βA)(βA) (DCAWHLGELLWCT-{βAla-βAla-cellulose}; disulfide 2-12 (inferred); reading uncertain; also: printed as DCAWHLGELLWCT-(βA)(βA))
0	0	0	05M: cellulose-bound 13-mer variant DCAWMLGELVWCT-(βA)(βA) (disulfide 2-12 (inferred); not fully specified (N-terminus, C-terminus); printed as DCAWMLGELVWCT-(βA)(βA); also: cellulose-bound)
0	0	0	02L: cellulose-bound 13-mer variant DLAWHLGELVWCT-(βA)(βA) (DLAWHLGELVWCT[βAla][βAla]; not fully specified; printed as DLAWHLGELVWCT-(βA)(βA); also: cellulose-bound)
0	0	0	06I: cellulose-bound 13-mer variant DCAWHIGELVWCT-(βA)(βA) (DCAWHIGELVWCT-{βAla-βAla-cellulose}; disulfide 2-12 (inferred); not fully specified (N-terminus); printed as DCAWHIGELVWCT-(βA)(βA); reading uncertain)
0	0	0	02R: cellulose-bound 13-mer variant DRAWHLGELVWCT-(βA)(βA) (DRAWHLGELVWCT[βAla][βAla]; not fully specified; printed as DRAWHLGELVWCT-(βA)(βA); also: cellulose-bound)
0	0	0	03P: cellulose-bound 13-mer variant DCPWHLGELVWCT-(βA)(βA) (DCPWHLGELVWCT-{βAla-βAla-cellulose}; disulfide 2-12 (inferred); reading uncertain; also: printed as DCPWHLGELVWCT-(βA)(βA))
0	0	0	12H: cellulose-bound 13-mer variant DCAWHLGELVWHT-(βA)(βA) (DCAWHLGELVWHT-{βAla-βAla-cellulose}; not fully specified; printed as DCAWHLGELVWHT-(βA)(βA); reading uncertain)
0	0	0	04D: cellulose-bound 13-mer variant DCADHLGELVWCT-(βA)(βA) (DCADHLGELVWCT-{βAla-βAla-cellulose}; disulfide 2-12 (inferred); reading uncertain; also: printed as DCADHLGELVWCT-(βA)(βA))
0	0	0	10C: cellulose-bound 13-mer variant DCAWHLGELCWCT-(βA)(βA) (DCAWHLGELCWCT-{βAla-βAla-cellulose}; not fully specified (bridges); printed as DCAWHLGELCWCT-(βA)(βA); cysteine pairing not given here; reading uncertain)
0	0	0	05Q: cellulose-bound 13-mer variant DCAWQLGELVWCT-(βA)(βA) (disulfide 2-12 (inferred); not fully specified (N-terminus, C-terminus); printed as DCAWQLGELVWCT-(βA)(βA); also: cellulose-bound)
0	0	0	03H: cellulose-bound 13-mer variant DCHWHLGELVWCT-(βA)(βA) (DCHWHLGELVWCT-{βAla-βAla-cellulose}; disulfide 2-12 (inferred); reading uncertain; also: printed as DCHWHLGELVWCT-(βA)(βA))
